Series [1] relates to native tau aggregates. Put plainly: Film autoradiography of AD brain tissue sections. Type of series: binding, human. As to the method:
Film autoradiography of AD Brain Tissue Sections are performed in a manner consistent with previously published methods (See Zhang, W., et al. F-18 stilbenes as PET imaging agents for detecting beta-amyloid plaques in the brain. Journal of Medicinal Chemistry, 48: 5980-5988, 2005, Zhang, W., et al. F-18 stilbenes as PET imaging agents for amyloid plaque imaging. Nucl Med Biol. 2007 34(1):89-97.)
Postmortem AD diagnosed human brain sections (frontal lobe, 10 um) are covered with 0.5 ml of [^18F]T807 (in 2.5:2.5:95=DMSO:ethanol:1X-phospate buffered saline (PBS), about 20 uCi of [^18F]T807 per slide, and incubated for 60 minutes at room temperature. Then successive washing cycles are employed with 2 minutes of 1× PBS, 2 minutes of 30% ethanol/1× PBS, 2 minutes of 70% ethanol/1× PBS, and 2 minutes 1× PBS, to remove any unbound tracer. After drying under a fume hood, the sections are put on a FujiFilm radio-sensor cassette and exposed over night. The autoradiography signal is recorded in the radio-sensor sheet and is read/visualized with the FujiFilm Bio-Imaging System FLA-7000. Autoradiographic visualization of tau is observed in gray matter of postmortem AD brain tissue. See FIG. 2 which illustrates [^18F]T807 labeling of tau in post-mortem frontal lobe sections (10 um) of tau-positive human brain tissue from patients with AD, approximately 20 uCi of [^18F]T807 per slide. Strong autoradiography signal of [^18F]T807 is observed on the grey matter (GM) region, and the presence of tau in these regions are confirmed by tau-immunostaining. The non-specific or background [^18F]T807 signal is shown in the white matter region (WM) and is low.

For series [2], the system named is PHF-tau. Conditions: cited from Alzheimer's & Dementia 2013; cited from earlier work.
The nature of series [3]: Solubility of precursor in DMSO. Type of series: physicochemical. The following applies: no sonication or heating required. The source says:
The solubility of the precursor compound affects the ability of the compound to get into solution so that a reaction to produce [^18F]T807 can effectively occur.

For `Fc1ccc(-c2ccc3c(c2)[nH]c2ccncc23)cn1` [Example T807, 7-(6-fluoro-3-pyridyl)-5H-pyrido[4,3-b]indole, reference compound], the “blocking of the [18F]T807 autoradiography signal (specificity for native tau aggregates)” value in series [1] (1 uM of cold T807, human AD brain sections) is given as “blocking effect”.

For `[18F]c1ccc(-c2ccc3c(c2)[nH]c2ccncc23)cn1` [[^18F]T807, 7-(6-[^18F]fluoro-3-pyridyl)-5H-pyrido[4,3-b]indole], in series [1] (post-mortem frontal lobe sections (10 um) of tau-positive human AD brain, about 20 uCi per slide), the “non-specific or background signal in the white matter region (WM)” value is “low”. Also, the “autoradiography signal on the grey matter (GM) region” value in series [1] (post-mortem frontal lobe sections (10 um) of tau-positive human AD brain, about 20 uCi per slide, 60 minutes at room temperature) is “Strong”. The “affinity and selectivity to PHF-tau” value in series [2] is reported as “high”.

For the molecule `CC(C)(C)OC(=O)n1c2ccncc2c2ccc(-c3ccc([N+](C)(C)C)nc3)cc21.Cc1ccc(S(=O)(=O)[O-])cc1` [formula Ia, 5-(5-(tert-butoxycarbonyl)-5H-pyrido[4,3-b]indol-7-yl)-N,N,N-trimethylpyridin-2-aminium 4-methylbenzenesulfonate], the “solubility in DMSO” value in series [3] was “readily soluble”.

Source of the values: US20160228586A1, “Compounds and Their Use for Preparation of Tau Imaging Agents and Tau Imaging Formulations” (ELI LILLY AND COMPANY, priority 2013, published 2016).
